From patent publication US20230355557A1, “ANTIVIRAL SOX INHIBITORS” (Gertrude Biomedical Pty LTD, priority 2020, published 2023)

What was measured:
Type in all cases: cell-based
SOX18 [1] = target: T1, SOX18 (Mus musculus, UniProt P43680); experiment: VCAM-1 luciferase reporter assay in COS-7 cells transfected with Vcam-1 promoter construct and SOX18; settings: VCAM-1 promoter luciferase, 24 hr compound incubation, % of maximal signal without compound
T1 construct: expressed in transfected cells; host or cells: COS-7 (monkey kidney fibroblast-like cells)
T1 sequence (P43680 1-377): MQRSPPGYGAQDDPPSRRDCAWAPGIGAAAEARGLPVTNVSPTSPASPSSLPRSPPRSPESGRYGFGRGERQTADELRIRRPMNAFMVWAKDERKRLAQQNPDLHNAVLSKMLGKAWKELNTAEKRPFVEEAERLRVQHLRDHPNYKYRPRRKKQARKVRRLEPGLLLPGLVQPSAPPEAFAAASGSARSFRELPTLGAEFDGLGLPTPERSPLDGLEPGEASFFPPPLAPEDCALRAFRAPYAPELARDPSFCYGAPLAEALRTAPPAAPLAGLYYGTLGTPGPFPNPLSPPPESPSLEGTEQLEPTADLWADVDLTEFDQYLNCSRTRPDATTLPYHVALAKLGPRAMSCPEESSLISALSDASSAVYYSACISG
Method: Monkey kidney fibroblast-like cells (COS-7) were cultured at 37° C. and 5% CO2 in DMEM (Life Technologies, 11995) with fetal bovine serum (FBS), sodium pyruvate, L-glutamine, penicillin, streptomycin, non-essential amino acids, and HEPES. Cells were grown in 96-well plates to 80% confluence and transfected with mouse plasmids pGL2 Vcam-1 promoter construct (VC1889) and pReceiver M49 SOX18, using X-tremeGENE HP DNA transfection reagent (Roche, 6366236001). After 4 hr of transfection, cells were incubated with compounds in 0.5% FBS medium for another 24 hr, before lysis and luciferase assay (Perkin Elmer, 6016711). Results are presented as %inhibition of the maximal signal observed in cells transfected with VCAM-1 and SOX18 without compound incubation.
The second assay measured the interaction between SOX18 and the VCAM-1 promoter (Hosking et al., (2004) J Biol. Chem. 297:5314-5322). […] Without wishing to be bound by theory, it is understood that viral infection can induce an inflammatory response of endothelial cells, the latter being a result of VCAM-1 gene expression which is regulated by SOX18 activity (Huber J. (1994) J Virol. 68(6):3453-8). Put another way, the expression of VCAM-1 is driven by SOX18 so upon virus infection, SOX18 binds to the VCAM promoter and induces expression of VCAM.
The compounds described in Table 2 were tested by the VCAM-1 luciferase reporter assay. The results are shown in Table 2 under the column %inhibition of SOX18.

SOX18 [2] = target: T2, SOX18 (Homo sapiens, UniProt P35713); experiment: SOX18 luciferase reporter assay (7XTR and OriA reporters) in HeLa cells; settings: HeLa cells transfected with SOX18 and 7xTR or OriA reporter, 24 hours treatment (FIG. 2)
T2 construct: expressed in transfected cells; host or cells: HeLa
T2 sequence (P35713 1-384): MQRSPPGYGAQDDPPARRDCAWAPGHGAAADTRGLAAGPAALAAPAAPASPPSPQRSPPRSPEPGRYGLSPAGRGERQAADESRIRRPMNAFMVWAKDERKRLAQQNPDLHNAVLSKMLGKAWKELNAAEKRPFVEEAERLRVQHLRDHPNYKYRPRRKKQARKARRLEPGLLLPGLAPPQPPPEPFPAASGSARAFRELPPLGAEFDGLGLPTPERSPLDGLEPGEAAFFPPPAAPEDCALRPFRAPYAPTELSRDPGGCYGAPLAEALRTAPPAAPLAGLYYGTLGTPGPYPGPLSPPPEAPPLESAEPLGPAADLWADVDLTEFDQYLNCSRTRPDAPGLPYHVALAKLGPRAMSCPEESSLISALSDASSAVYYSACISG
Method: Luciferase signal was quantified and single values from n=3 technical replicates are shown. Data points represent mean + SD. P values were calculated using a 2-way and ordinary one way ANOVA followed by Dunnett’s multiple comparison test.
(§1) KSHV-infected cells were incubated with the indicated inhibitor at the concentrations stated in the Figure panels for six days prior to analysis. HeLa cells were incubated with the indicated inhibitor at the concentrations stated in the Figure panels for 24 hours prior to analysis.
HeLa cells were cultured in DMEM containing 10% FCS, 1% L-glutamine and 1% pen/strep at 37° C. & 5% CO2. Cells were seeded at a density of 7000 cells per well in 125 µL of the maintenance medium in a 96-well format for 24 hours.
Plasmids were transfected using FuGENE HD Transfection Reagent (Promega E2311) (1:4 DNA to reagent ratio) and Opti-MEM (ThermoFisher 31985062). OriA-luc negative control and experimental wells contained 25 ng OriA-luc plasmid and 10 ng SOX18 plasmid per well, positive control contained 25 ng OriA-luc plasmid and 10 ng mCherry plasmid per well. 7XTR-luc negative control and experimental wells contained 50 ng 7XTR-luc plasmid and 20 ng SOX18 plasmid per well, positive control contained 50 ng 7XTR-luc plasmid and 20 ng mCherry plasmid per well. Cell were incubated for 18 hours before cells were replenished with new medium containing experimental compounds and incubated for 24 hours.
Luminescence was measured by adding an equal volume of Steady-Glo reagent to cells at room temperature and luminescence was quantified using the FLUOstar plate reader (BMG Labtech, FLUOstar Omega; 4 sec intervals per well).
Activation of these genes was measured using HeLa cells that were transfected with luciferase-reporters harbouring either seven copies of the TR (7XTR) or the OriA promoter fused to OriLyt upstream of an SV40 promoter and a firefly luciferase reporter. ORF, that binds to the OriLyt and is a potent activator of this reporter (Chen J et al., (2009) Virology 386:290-302) was used as a positive control. […]

[3] = tested on: Kaposi sarcoma herpesvirus (KSHV); experiment: KLEC genome copy number assay in KSHV-infected primary human dermal lymphatic endothelial cells; settings: KSHV-infected LECs, 6 days
Method: The relative expression of KSHV from control was quantified and single values from n=3 technical replicates are shown. Bars represent mean + SD. P values were calculated using a 2-way ANOVA (left) and ordinary one way-ANOVA (right) followed by Dunnett’s multiple comparison test.
as §1
Primary human dermal lymphatic (C-12216) endothelial cells (LECs) were purchased from Promocell and grown in Lonza EBM-2 (00190860) supplemented with EGMTM-2 MV Microvascular Endothelial SingleQuotsTM(CC-4147). Cell from passage 1-3 were used.
rKSHV.219 was produced from iSLK.219 cells reactivated using 0.2 µg/ml doxycycline and 1.35 mM NaB for 72 h. Supernatant was harvested, spun down (2000 rpm 5 min) and sterile filtered using […] pore-size filters. Subsequently the supernatant was ultracentrifuged at 22000 rpm for 2 h. The concentrated virus was then aliquoted and stored at -80° C.
Equal number of LECs were seeded into 6-well assay-plates and incubated at 37° C. & 5% CO2 until 80% confluency. After reaching confluency, LECs were infected with rKSHV.219 and incubated at 37° C. & 5% CO2 for 3 days, making sure that the cell density remained similar. Cell were subsequently mixed at a 2:3 ratio with uninfected LECs for 2 days. Once GFP expression and cell spindling was observed the culture medium was replaced with medium containing the experimental compounds with 0.25% DMSO (v/v) at concentrations from 0.1 uM to 50 uM. After 3 days of incubation, the cells were replenished with new medium containing experimental compounds and incubated for 3 more days.
After compound incubation, cells were collected and genomic and viral DNA was extracted using the NucleoSpin Tissue Kit (Macherey-Nagel, 740952) following the kit’s standard protocol. qPCR was subsequently completed (SYBR Green, ThermoFisher K0222) in triplicates using primers for viral K8.1 and Human genomic actin. K8.1 forward primer: […] (SEQ ID NO:1); reverse primer: […] (SEQ ID NO:2). Genomic acid forward primer: […] (SEQ ID NO:3); reverse primer: […] (SEQ ID NO:4).
A KLEC assay was used to examine the ability of the compounds to inhibit viral copy number in virus infected primary human dermal lymphatic endothelial cells (LECs).

Row | Structure (SMILES) | %inhibition of Sox18 (SOX18 [1]) [%] | other results
1 | O=C(O)c1c(O)cccc1CCc1ccc2ccccc2c1 [GB001, 2-hydroxy-6-(2-(naphthalen-2-yl)ethyl)benzoic acid] | 99.10 | interference with SOX18-mediated gene transcription (luciferase signal) (SOX18 [2]): interferes with SOX18-mediates gene transcription; reduction in KSHV genome copy number (fold change) ([3]; 10 µM): Significant reduction in genome copy number; reduction in KSHV genome copy number (fold change) ([3]; 50 µM): Significant reduction in genome copy number
2 | COc1cccc(/C=C/c2ccc3ccccc3c2)c1C(=O)O [GB002, (E)-2-methoxy-6-(2-(naphthalen-2-yl)vinyl)benzoic acid] | 30.78 | interference with SOX18-mediated gene transcription (luciferase signal) (SOX18 [2]): interferes with SOX18-mediates gene transcription; reduction in KSHV genome copy number (fold change) ([3]; 50 µM): Significant reduction in genome copy number
3 | O=C(O)c1c(O)cccc1CCc1ccccc1 [GB003, 2-hydroxy-6-phenethylbenzoic acid] | 49.18 | 
4 | O=C(O)c1c(O)cccc1CCc1ccc(Cl)cc1Cl [GB004, 2-(2,4-dichlorophenethyl)-6-hydroxybenzoic acid] | 48.26 | interference with SOX18-mediated gene transcription (luciferase signal) (SOX18 [2]): interferes with SOX18-mediates gene transcription; reduction in KSHV genome copy number (fold change) ([3]; 5 µM): Significant reduction in genome copy number
5 | COc1ccc(CCc2cccc(OC)c2C(=O)O)cc1 [GB005, 2-methoxy-6-(4-methoxyphenethyl)benzoic acid] | 25.32 | 
6 | COc1cccc(COCc2ccc3ccccc3c2)c1C(=O)O [GB006, 2-methoxy-6-((naphthalen-2-ylmethoxy)methyl)benzoic acid] | 19.33 | 
7 | Cc1cc(O)c(C(=O)O)c(CCc2ccc3ccccc3c2)c1 [GB012, 2-hydroxy-4-methyl-6-(2-(naphthalen-2-yl)ethyl)benzoic acid] | 96.7 | 
8 | O=C(O)c1c(O)cc(Cl)cc1CCc1ccc2ccccc2c1 [GB019, 4-chloro-2-hydroxy-6-(2-(naphthalen-2-yl)ethyl)benzoic acid] | 54.02 | 
9 | COc1cc(O)c(C(=O)O)c(CCc2ccc3ccccc3c2)c1 [GB025, 2-hydroxy-4-methoxy-6-(2-(naphthalen-2-yl)ethyl)benzoic acid] | 67.19 | 
10 | COC(=O)c1c(O)cccc1/C=C/c1ccccc1 [GB026, methyl (E)-2-hydroxy-6-styrylbenzoate] | 49.66 | 
11 | COc1cccc(CCc2cccc3ccccc23)c1C(=O)O [GB027, 2-methoxy-6-(2-(naphthalen-1-yl)ethyl)benzoic acid] | 47.43 | 
12 | COC(=O)c1c(O)cccc1CCc1ccc(Cl)cc1 [GB028, methyl 2-(4-chlorophenethyl)-6-hydroxybenzoate] | 48.31 | 
